Results from ChEMBL document CHEMBL5137017, “Identification of NVP-CLR457 as an Orally Bioavailable Non-CNS-Penetrant pan-Class IA Phosphoinositol-3-Kinase Inhibitor” (J Med Chem, 2022).
Active and inactive are the calls of the source. No cut-off for these calls is given here.

Columns and labels:
[1] = Half life in Beagle dog at 5.4 mg/kg, po measured upto 24 hrs using PVP-ASD form of sample by LC-MS/MS analysis; type: ADME, organism-based, Canis lupus familiaris; conditions: in vivo
Rat1 [2] = assay: Antitumor activity at rat Rat1 cells expressing myr-p110alpha xenografted in athymic nude mouse assessed as tumor growth inhibition at 40 mg/kg, po bid measured after 9 days; type: functional; conditions: Rat1, 216 h, time 9 day
[3] = Effect on blood glucose level in athymic nude mouse xenografted with rat Rat1 cells expressing myr-p110alpha assessed as fold increase at 40 mg/kg, po bid measured for 2 to 10 hrs by glucometer analysis; type: toxicity, organism-based; conditions: in vivo, time 2-10 hrs
[4] = Dose normalized AUC(0 to Tlast) in athymic nude mouse xenografted with rat Rat1 cells expressing myr-p110alpha at 10 mg/kg, po measured after 8 days by LC-MS/MS analysis; type: ADME, organism-based; conditions: in vivo, 192 h, time 8 day
[5] = Inhibition of PI3K PTEN mutant in human MDA-MB-436 cells assessed as reduction in phosphorylation of AKT at Ser473 residue by Western blot analysis; type: cell-based
[6] = Effect on blood glucose level in athymic nude mouse xenografted with rat Rat1 cells expressing myr-p110alpha at 3 to 20 mg/kg, po qd measured upto 14 hrs by glucometer analysis; type: toxicity, organism-based; conditions: in vivo, dose 3-20 mg/kg
[7] = Drug concentration in OF1 mouse brain at 1 mg/kg, iv measured at 5 mins post dose by LC-MS/MS analysis; type: ADME, organism-based; conditions: in vivo
[8] = Oral bioavailability in Sprague-Dawley rat at 20 mg/kg using crystalline form of sample; type: ADME, organism-based; conditions: in vivo
[9] = Toxicity in athymic nude mouse xenografted with human HBRX2524 cells assessed as change in body weight at 40 mg/kg, po qd measured upto 16 days; type: organism-based; conditions: in vivo, 384 h, time < 16 day
cells = conditions: Rattus norvegicus, Rat1, 1 h
[10] = Oral bioavailability in OF1 mouse plasma at 10 mg/kg measured upto 24 hrs by LC-MS/MS analysis; type: ADME, organism-based
[11] = Effect on plasma insulin level in athymic nude mouse xenografted with rat Rat1 cells expressing myr-p110alpha at 10 mg/kg, po qd measured upto 14 hrs by glucometer analysis; type: toxicity, organism-based; conditions: in vivo
[12] = Minimal apparent permeability across apical to basolateral side in human Caco-2 cells at 0.25 to 30 uM measured after 120 mins by LC-MS/MS analysis; type: ADME, cell-based; conditions: dose 0.25-30 µM
[13] = Dose normalized Cmax in Sprague-Dawley rat at 3 mg/kg, po measured upto 24 hrs by LC-MS/MS analysis; type: ADME, organism-based; conditions: in vivo
[14] = Apparent permeability across apical to basolateral side in human Caco-2 cells at 10 uM measured after 120 mins by LC-MS/MS analysis; type: ADME, cell-based
[15] = AUC(0 to Tlast) in athymic nude mouse xenografted with rat Rat1 cells expressing myr-p110alpha at 10 mg/kg, po measured after 8 days by LC-MS/MS analysis; type: ADME, organism-based; parameters: time 8 day, dose 10 mg/kg, route po; conditions: in vivo
[16] = Apparent permeability in human Caco-2 cells assessed as Km by Michaelis-Menten based analysis; type: ADME, cell-based; conditions: read-out: Km(app)
[17] = AUCinfinity in Beagle dog at 6 mg/kg, po measured upto 24 hrs using crystalline form of sample by LC-MS/MS analysis; type: ADME, organism-based, Canis lupus familiaris; parameters: dose 6 mg/kg, time < 24 hrs, route po; conditions: in vivo
Rat1 [18] = assay: Antitumor activity at rat Rat1 cells expressing myr-p110alpha xenografted in athymic nude mouse assessed as T/C ratio at 20 mg/kg, po bid measured after 15 to 24 days; type: functional; conditions: time 15-24 day
[19] = Cmax in Beagle dog at 5.4 mg/kg, po measured upto 24 hrs using PVP-ASD form of sample by LC-MS/MS analysis; type: ADME, organism-based, Canis lupus familiaris; parameters: dose 5.4 mg/kg, time < 24 hrs, route po; conditions: in vivo
Tubulin (Sus scrofa) = Tubulin (Sus scrofa) (UniProt P02554+P02550); assay: Inhibition of porcine tubulin polymerization assessed as inhibition of microtubule polymerization at 15 to 30 uM measured after 1 hr; type: protein assay; conditions: dose 15-30 µM
[20] = Inhibition of PI3K PTEN mutant in human HCC1395 cells assessed as reduction in phosphorylation of AKT at Ser473 residue by Western blot analysis; type: cell-based
[21] = Inhibition of wild type PI3K in human HCC1187 cells assessed as reduction in phosphorylation of AKT at Ser473 residue by Western blot analysis; type: cell-based
[22] = AUC(0 to Tlast) in athymic nude mouse xenografted with rat Rat1 cells expressing myr-p110alpha at 20 mg/kg, po measured after 8 days by LC-MS/MS analysis; type: ADME, organism-based; parameters: dose 20 mg/kg, time 8 day, route po; conditions: in vivo
Mus musculus = assay: In vivo Inhibition of AKT phosphorylation at Ser473 residue in athymic nude mouse xenografted with rat Rat1-myr-p110alpha cells at 10 mg/kg, po qd measured after 1 to 4 hrs; type: functional, organism-based; conditions: time 1-4 hrs
[23] = Cmax in OF1 mouse at 10 mg/kg,po or 3 mg/kg,iv measured upto 24 hrs by LC-MS/MS analysis; type: ADME, organism-based; parameters: time < 24 hrs, dose 10 mg/kg, route po; conditions: in vivo
[24] = Dose normalized AUC in beagle dog at 3 mg/kg, po measured upto 24 hrs by LC-MS/MS analysis; type: ADME, organism-based, Canis lupus familiaris; conditions: in vivo
[25] = Tlast in athymic nude mouse xenografted with rat Rat1 cells expressing myr-p110alpha at 3 mg/kg, po measured after 8 days by LC-MS/MS analysis; type: ADME, organism-based; conditions: in vivo, 192 h, time 8 day
[26] = Inhibition of wild type PI3K in human CAL-85-1 cells assessed as reduction in phosphorylation of AKT at Ser473 residue by Western blot analysis; type: cell-based
[27] = AUC(0 to Tlast) in athymic nude mouse xenografted with rat Rat1 cells expressing myr-p110alpha at 40 mg/kg, po measured after 8 days by LC-MS/MS analysis; type: ADME, organism-based; parameters: time 8 day, dose 40 mg/kg, route po; conditions: in vivo
[28] = Oral bioavailability in Sprague-Dawley rat at 3 mg/kg measured for 0.25 to 24 hrs by LC-MS/MS analysis; type: ADME, organism-based; conditions: in vivo, time 0.25-24 hrs
[29] = Oral bioavailability in Sprague-Dawley rat at 21.5 mg/kg using hydroxypropyl methylcellulose amorphous solid dispersion form of sample; type: ADME, organism-based; conditions: in vivo
[30] = Dose normalized AUC(0 to Tlast) in athymic nude mouse xenografted with rat Rat1 cells expressing myr-p110alpha at 20 mg/kg, po measured after 8 days by LC-MS/MS analysis; type: ADME, organism-based; conditions: in vivo, 192 h, time 8 day
[31] = Dose normalized Cmax in beagle dog at 3 mg/kg, po measured upto 24 hrs by LC-MS/MS analysis; type: ADME, organism-based, Canis lupus familiaris; conditions: in vivo
[32] = Cmax in athymic nude mouse xenografted with rat Rat1 cells expressing myr-p110alpha at 10 mg/kg, po measured after 8 days by LC-MS/MS analysis; type: ADME, organism-based; parameters: dose 10 mg/kg, time 8 day, route po; conditions: in vivo
[33] = Inhibition of wild type PI3K in human Hs-578T cells assessed as reduction in phosphorylation of AKT at Ser473 residue by Western blot analysis; type: cell-based
[34] = Dose normalized AUC in Sprague-Dawley rat at 30 mg/kg, po measured upto 24 hrs by LC-MS/MS analysis; type: ADME, organism-based; conditions: in vivo
[35] = Cmax in Beagle dog at 6 mg/kg, po measured upto 24 hrs using crystalline form of sample by LC-MS/MS analysis; type: ADME, organism-based, Canis lupus familiaris; parameters: dose 6 mg/kg, time < 24 hrs, route po; conditions: in vivo

Tubulin (Sus scrofa), sequence (P02550 whole entry, looked up): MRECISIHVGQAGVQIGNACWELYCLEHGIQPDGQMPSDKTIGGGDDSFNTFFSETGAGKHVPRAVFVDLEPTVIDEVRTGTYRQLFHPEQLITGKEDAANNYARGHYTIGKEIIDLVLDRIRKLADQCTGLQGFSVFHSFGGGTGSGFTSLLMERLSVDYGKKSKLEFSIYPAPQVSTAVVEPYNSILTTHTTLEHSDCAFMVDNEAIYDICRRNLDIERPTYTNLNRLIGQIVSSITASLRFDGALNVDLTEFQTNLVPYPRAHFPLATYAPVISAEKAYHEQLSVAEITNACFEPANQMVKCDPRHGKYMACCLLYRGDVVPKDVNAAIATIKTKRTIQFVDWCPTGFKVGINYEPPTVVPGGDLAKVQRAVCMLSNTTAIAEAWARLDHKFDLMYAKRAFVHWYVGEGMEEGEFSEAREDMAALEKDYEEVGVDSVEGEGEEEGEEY
Tubulin (Sus scrofa), sequence (P02554 whole entry, looked up): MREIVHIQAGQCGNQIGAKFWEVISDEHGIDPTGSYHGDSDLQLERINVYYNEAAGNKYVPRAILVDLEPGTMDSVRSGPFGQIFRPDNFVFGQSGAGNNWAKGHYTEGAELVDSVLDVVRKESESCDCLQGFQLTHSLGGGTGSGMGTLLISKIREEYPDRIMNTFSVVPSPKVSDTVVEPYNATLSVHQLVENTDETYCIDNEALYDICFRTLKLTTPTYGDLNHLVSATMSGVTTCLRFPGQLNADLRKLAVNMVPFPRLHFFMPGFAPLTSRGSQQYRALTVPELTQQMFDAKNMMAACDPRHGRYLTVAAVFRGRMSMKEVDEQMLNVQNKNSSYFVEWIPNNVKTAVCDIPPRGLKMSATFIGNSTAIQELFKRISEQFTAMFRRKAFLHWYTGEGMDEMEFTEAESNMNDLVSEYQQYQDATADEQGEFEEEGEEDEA

For `C[C@H]1OC(=O)N(c2nc(-c3cnc(N)nc3C(F)(F)F)cc(N3CCOCC3)n2)[C@H]1CO`, the half-life [1] was 9.9 h, the inhibition in vivo at 40 mg/kg (Rat1 [2]) was greater than 80% and the “fold change (FC)” value [3] was 2. For the same compound, the AUC/dose [4] was 1.57 µM·h, the IC50 [5] was 179 nM and the Activity [6] was “Non-Toxic”. For the same compound, the Ct [7] was 67 pmol/g, the bioavailability [8] was 20% and the Activity [9] was “Non-Toxic”. For the same compound, the IC50 (cells) was 26 nM, the bioavailability [10] was 49% and the Activity [11] was “Toxic”. It also gave a Papp A→B at 2 h, up to 30 µM [12] of 2.5 ×10⁻⁶ cm/s, a Cmax/dose [13] of 213 nM and a Papp A→B at 2 h, 10 µM [14] of 8.9 ×10⁻⁶ cm/s. The AUC(0-t) at 192 h [15] was 16 µM·h, the Km [16] was greater than 30 µM and the AUC(0-inf) [17] was 44.6 µM·h. For the same compound, the T/C (Rat1 [18]) was -0.8, the Cmax [19] was 10700 nM and the inhibition (Tubulin (Sus scrofa)) was “Active”. For the same compound, the IC50 [20] was 169 nM, the IC50 [21] was 94 nM and the AUC(0-t) at 192 h [22] was 26 µM·h. The inhibition (Mus musculus) was “Active”, the Cmax [23] was 422 nM and the AUC/dose [24] was 11213 nM·h. The Tlast [25] was 14 h, the IC50 [26] was 30 nM and the AUC(0-t) at 192 h [27] was 54 µM·h. It also gave a bioavailability [28] of 97%, a bioavailability [29] of 100% and an AUC/dose [30] of 1.28 µM·h. The Cmax/dose [31] was 309 nM, the Cmax [32] was 2280 nM and the IC50 [33] was 27 nM. For the same compound, the AUC/dose [34] was 913 nM·h and the Cmax [35] was 1240 nM.
